Experimental data as given in US4624944A, “Human seminal alpha-inhibins” (The Regents of The University of California, priority 1985, dated 1986).
Where no end group is shown, it is not given here.

How the values were obtained:
[1] = system: LHRH-induced FSH secretion by mouse pituitary; experiment: FSH-suppressing (inhibin) activity, in vitro mouse pituitary system; type: cell-based; conditions: for ED50 (FSH-suppressing activity) / times more active than alpha-IB-31 in suppressing FSH (follitropin) release: mouse pituitaries in vitro; for ED50 (FSH-suppressing activity): LHRH-induced FSH secretion, 95% confidence limits in parenthesis; for Relative Potency (FSH-suppressing activity): relative to alpha-IB-31 = 1.0; for times more active than alpha-IB-31 in suppressing FSH (follitropin) release: text statement
Experimental: FIG. 6 is a graphical illustration of the effect of alpha-IB-31, alpha-IB-52, and alpha-IB-92 on LHRH-induced FSH secretion by mouse pituitary. Means ±SEM (n=5) are shown. On the graph solid circles represent alpha-IB-31; open circles represent alpha-IB-52; solid triangles represent alpha-IB-92.
Disc electrophoresis in polyacrylamide slab gels was performed as described by Reisfield, et al. (1962). The gels were stained with Coomassie Blue (R250). NaDodSO4 gel electrophoresis was carried out as described by Laemmli (1970). The inhibin activity was assayed by the in vitro mouse pituitary system (Yamashiro, et al., 1984; Ramasharma, et al., 1981).
FIG. 6 presents bioassay data for alpha-IB-31, alpha-IB-52 and alpha-IB-92 in suppressing the lutropin-releasing hormone (LHRH)-induced FSH secretion by using mouse pituitaries in vitro. […] The addition of 40 amino acids at the NH2 -terminus of alpha-IB-52 greatly enhance the inhibin activity.

[2] = system: pituitary FSH secretion; conditions: in vitro and in vivo, Yamashiro et al. (1984); cited from earlier work
[3] = system: rabbit antiserum to alpha-IB-31; experiment: RIA of alpha-inhibins using rabbit antiserum to ILP (displacement of labelled [Tyr4]-alpha-IB-31); type: binding; conditions: for ED50 (RIA): rabbit antiserum to ILP; for ED50 (RIA) / Relative Potency (RIA): 95% confidence limits in parenthesis; for Relative Potency (RIA): relative to alpha-IB-31 = 1.00; for potency in displacing labelled [Tyr4]-alpha-IB-31, relative to alpha-IB-31: antiserum raised against alpha-IB-31, text statement
Experimental: Radioimmunoassay was performed with rabbit antiserum to alpha-IB-31. Amino acid analyses were performed in an automatic amino acid analyzer (Model 119C, Beckman) as described by Spackman, et al. (1958). The NH2 -terminal residue was determined by the dansyl-Edman procedure (Gray, 1967). For COOH-terminal residue analysis, carboxypeptidase Y digests were carried out in 1M pyridine acetate buffer (pH 5.5) for 4 hr at 37° C. with an enzyme-to-substrate ratio of 1:50. Trypsin digestions were performed with an enzyme-to-substrate ratio of 1:50 in 0.05M Tris/0.01 M Mg^2+, pH 8.5, at 37° C. for 4 hr.
Alpha-IB-52 and alpha-IB-92 cross-react to an antiserum raised against alpha-IB-31. They displace labelled [Tyr^4 ]-alpha-IB-31 with 60% of the potency of alpha-IB-31.

Substance	ED50 (FSH-suppressing activity) [1]	Relative Potency (FSH-suppressing activity) [1]	suppression of pituitary FSH secretion [2]	ED50 (RIA) [3]	Relative Potency (RIA) [3]	times more active than alpha-IB-31 in suppressing FSH (follitropin) release [1] [times]	potency in displacing labelled [Tyr4]-alpha-IB-31, relative to alpha-IB-31 [3] [%]	times more active than alpha-IB-31 in suppressing FSH (follitropin) release ([1]; listed as alpha-inhibin-92)
HNKQEGRDHDKSKGHFHRVVIHHKGGKAHRG [alpha-IB-31, alpha-inhibin-31, reference compound]	1.02 (0.34-2.9) pmol/ml	1.0	suppresses pituitary FSH secretion in vitro and in vivo	38 (29-50) fmoles	1.00			
HNKQEGRDHDKSKGHFHRVVIHHKGGKAHRGTQNPSQDQGNSPSGKGISSQY [alpha-IB-52, alpha-inhibin-52]	0.30 (0.18-0.52) pmol/ml	3.4		65 (45-92) fmoles	0.58 (0.31-1.1)	3.4	60	
alpha-inhibin-92 [alpha-IB-92]	0.025 (0.01-0.049) pmol/ml	40.5		63 (42-94) fmoles	0.60 (0.31-1.2)	40	60	over 40 times
